The values below come from paper PMC9868654, “Discovery of a potent olaparib–chlorambucil hybrid inhibitor of PARP1 for the treatment of cancer” (Frontiers in Pharmacology, 2023).

Bounds are passed on as bounds.

As a reminder, the IC50 is the concentration that inhibits the measured activity by half. High values mean a need for much substance, low ones inhibition by little substance.

The subject of data set [1] is K562 cells. The data set is described as follows: Cell cycle analysis (PI staining, flow cytometry). Format: cell-based. The settings on record: K562, 24 h; C2 1.25–5.0 µM; olaparib and chlorambucil 2.5–10 µM. The procedure: K562 and HCC1937 cells were incubated with different doses of molecule C2, olaparib, or chlorambucil for 24 h. After treatment, cells were collected and fixed with 70% pre-chilled ethanol in PBS and stored at −20°C overnight. The cells were then washed twice with PBS, incubated with 100 μg/ml RNase I (Solarbio, China) at 37°C for 1 h, and stained with propidium iodide (PI, 10 μg/ml, Solarbio, China) for 30 min, in the dark, at room temperature. Finally, the DNA content was measured using flow cytometry (FACSAria III, Becton Dickinson, United States). The data were analyzed and fitted using ModFit software.
In general terms: A flow cytometer gives signals particle by particle.

On the set-up of data set [2]: method as in Jackson and Chester, 2015. As to conditions: ref Jackson and Chester, 2015; cited from earlier work.
Data set [3] concerns K562 cells. The data set is described as follows: Cell apoptosis analysis (Annexin V-BV421/7-AAD, flow cytometry). Format: cell-based. As to conditions: 24 h, control .90%. The procedure: K562 cells were treated with various concentrations of molecule C2, olaparib, or chlorambucil for 24 h. Cells were then harvested and washed twice with PBS and then resuspended with binding buffer (Becton Dickinson, United States). Cells were incubated with Annexin V-BV421 (Becton Dickinson, United States) and 7-AAD (Becton Dickinson, United States) for double labeling for 30 min, in the dark, at room temperature, followed by analysis using flow cytometry (FACSAria III, Becton Dickinson, United States). The data were analyzed using FlowJo v10 software.

The test system of data set [4] is A549 cells. The data set is described as follows: In vitro antiproliferative assay (CCK-8). It is filed as cell-based. The settings on record: Homo sapiens; A549, without BRCA mutations; CCK-8, 72 h; mean of three. On the procedure: (§1) The proliferation of cancer cells was tested by CCK-8 assay. Briefly, cells were seeded in 96-well plates at approximately 5 × 10^3 cells per well. The cells were treated with test compounds after 24 h of incubation. CCK-8 reagent ([…]) was added to each well after 72 h of incubation, and the cells were then incubated at 37°C for 4 h. The light absorbance at 450 nm was measured using an Opsys microplate reader (Dynex Technologies, Chantilly, VA, United States). Results are illustrated as percentage viability normalized to DMSO-treated control cells.

Data set [5] relates to MDA-MB-231 cells. The data set can be described thus: In vitro antiproliferative assay (CCK-8). It is filed as cell-based. The settings on record: Homo sapiens; MDA-MB-231, without BRCA mutations; CCK-8, 72 h; mean of three. On the procedure:
as §1

Data set [6] relates to U251 cells. The data set can be described thus: In vitro antiproliferative assay (CCK-8). It is filed as cell-based. As to conditions: Homo sapiens, U-251; U251, without BRCA mutations; CCK-8, 72 h; mean of three. The procedure:
as §1

The subject of data set [7] is CH151 cells. The data set can be described thus: In vitro antiproliferative assay (CCK-8). Format: cell-based. As to conditions: CH151, without BRCA mutations; CCK-8, 72 h; mean of three. The procedure: as §1
Data set [8] concerns MDA-MB-436 cells. The data set is described as follows: In vitro antiproliferative assay (CCK-8). The settings on record: Homo sapiens; MDA-MB-436, BRCA-mutated; CCK-8, 72 h; mean of three. It is filed as cell-based. On the procedure: as §1
Data set [9] deals with Raji cells. The data set can be described thus: In vitro antiproliferative assay (CCK-8). As to conditions: Homo sapiens, without BRCA mutations, CCK-8, 72 h, mean of three. Format: cell-based. On the procedure:
as §1

The test system of data set [10] is Hela cells. The data set is described as follows: In vitro antiproliferative assay (CCK-8). Format: cell-based. As to conditions: Homo sapiens, without BRCA mutations, CCK-8, 72 h, mean of three. On the procedure: as §1
The test system of data set [11] is B16 cells. The data set is described as follows: In vitro antiproliferative assay (CCK-8). As to conditions: Mus musculus; B16, without BRCA mutations; CCK-8, 72 h; mean of three. Format: cell-based. The procedure:
as §1

In data set [12] the test system is HCC1937 cells. The data set is described as follows: In vitro antiproliferative assay (CCK-8). It is filed as cell-based. As to conditions: Homo sapiens; HCC1937, BRCA-mutated; CCK-8, 72 h; mean of three. On the procedure: as §1
Data set [13] concerns 8226 cells. The data set is described as follows: In vitro antiproliferative assay (CCK-8). Format: cell-based. The settings on record: 8226, without BRCA mutations; CCK-8, 72 h; mean of three. On the procedure:
as §1

The subject of data set [14] is K562 cells. The data set can be described thus: In vitro antiproliferative assay (CCK-8). It is filed as cell-based. The settings on record: Homo sapiens; K562, without BRCA mutations; CCK-8, 72 h; mean of three. On the procedure:
as §1

The test system of data set [15] is U87 cells. The data set is described as follows: In vitro antiproliferative assay (CCK-8). It is filed as cell-based. As to conditions: Homo sapiens, U-87 MG; U87, without BRCA mutations; CCK-8, 72 h; mean of three. On the procedure: as §1
The subject of data set [16] is MCF-7 cells. The data set is described as follows: In vitro antiproliferative assay (CCK-8). Format: cell-based. As to conditions: Homo sapiens, MCF7; MCF-7, without BRCA mutations; CCK-8, 72 h; mean of three. On the procedure: as §1
Data set [17] concerns SW620 cells. The data set is described as follows: In vitro antiproliferative assay (CCK-8). It is filed as cell-based. As to conditions: Homo sapiens, SW-620; SW620, without BRCA mutations; CCK-8, 72 h; mean of three. On the procedure:
as §1

The subject of data set [18] is Capan-1 cells. The data set can be described thus: In vitro antiproliferative assay (CCK-8). Format: cell-based. The settings on record: Homo sapiens; Capan-1, BRCA-mutated; CCK-8, 72 h; mean of three. On the procedure: as §1
The test system of data set [19] is SKOV3 cells. The data set is described as follows: In vitro antiproliferative assay (CCK-8). It is filed as cell-based. As to conditions: Homo sapiens, SK-OV-3; SKOV3, without BRCA mutations; CCK-8, 72 h; mean of three. On the procedure:
as §1

Details of data set [20]: method as in Gala et al., 2020. The settings on record: in both aqueous and lipophilic solutions; ref Gala et al., 2020; cited from earlier work.

Turning to `O=C(c1cc(Cc2n[nH]c(=O)c3ccccc23)ccc1F)N1CCN(C(=O)C2CC2)CC1` [Olaparib], the “effect on cell cycle (in words)” value in data set [1] is on record as “did not exhibit any effects”. Further, the “pharmacokinetics profiles and bioavailability” value in data set [2] is recorded as “relatively poor”. Besides, the “percentage of apoptotic cells (apoptotic rate)” value is recorded as 1.53% in [3] (K562, 5 μM) and 1.91% in data set [3] (K562, 10 µM). In addition, the IC50 is 1.62 ± 0.11 µM in data set [4]; 53.8 ± 3.6 µM in [5]; over 100 µM in data set [6]; 24.9 ± 1.5 µM in data set [7]; 0.047 ± 0.003 µM in data set [8]; 4.4 ± 0.33 µM in data set [9]. The IC50 is 11.6 ± 1.01 µM in data set [10]; over 100 µM in data set [11]; 0.24 ± 0.01 µM in data set [12]; 66.8 ± 5.5 µM in data set [13]; 10.4 ± 0.72 µM in [14]; 26 ± 1.2 µM in data set [15]. Moreover, the concentration for half-maximal inhibition (IC50) turned out to be 30.6 ± 2.1 µM in data set [16], 17.7 ± 1.2 µM in data set [17], 0.129 ± 0.011 µM in data set [18] and 12.8 ± 1.2 µM in data set [19]. For the same compound, the solubility result in [20] is “low solubility”.
